The results in this text go back to patent publication US7560458B2, “Triazolopyrimidine derivatives as glycogen synthase kinase 3 inhibitors” (Janssen Pharmaceutica, N.V., priority 2003, dated 2009).

In one assay the target is GSK3alpha (Homo sapiens, UniProt P49840). Put plainly: GSK3alpha assay (same as the GSK3beta assay, GSK3alpha 0.25 ng/μl). The conditions noted are these: −log IC50 (M); given as ranges (>8; 7-8; <7); read-out: pIC50 (GSK3alpha) (converted). The format is biochemical. As for the experimental part:
(§1) GSK3beta assays were performed at room temperature in a 100 μl reaction volume of 25 mM Tris (ph 7.4) containing 10 mM MgCl2.6H2O 1 mM DTT, 0.1 mg/ml BSA, 5% glyceol and containing 5.7 ng/μl GSK3β, 5 μM biotinylated phosphorylated CREB peptide, 1 μM APT, 0.85 μCi/ml ATP-P^33 and a suitable amount of a test compound of formula (I). After one hour, the reaction was terminated by adding 70 μl of Stop mix (0.1 mM APT, 5 mg/ml streptavidin coated PVT SPA bead pH 11.0). The beads to which the phosphorylated CREB peptide is attached were allowed to settle overnight and the radioactivity of the beads was counted in a microtiterplate scintillation counter and compared with the results obtained in a control experiment (without the presence of a test compound) in order to determine the percentage of GSK3β inhibition. The IC50 value, i.e. the concentration (M) of the test compound at which 50% of GSK3β is inhibited, was calculated from the dose response curve obtained by performing the above-described GSKK3β assay in the presence of different amounts of the test compound.
The GSK3alpha assay was performed in the same way as described above for the GSK3beta assay except for the concentration of GSK3alpha which is 0.25 ng/μl.

The target in another assay is GSK3β (Homo sapiens, UniProt P49841). Put plainly: GSK3beta assay (SPA, biotinylated phosphorylated CREB peptide, ATP-P33). The format is biochemical. The note with it: −log IC50 (M); given as ranges (>8; 7-8; <7); read-out: pIC50 (GSK3beta) (converted). As for the experimental part: as §1
Sequence of GSK3β (P49841 whole entry, species assumed): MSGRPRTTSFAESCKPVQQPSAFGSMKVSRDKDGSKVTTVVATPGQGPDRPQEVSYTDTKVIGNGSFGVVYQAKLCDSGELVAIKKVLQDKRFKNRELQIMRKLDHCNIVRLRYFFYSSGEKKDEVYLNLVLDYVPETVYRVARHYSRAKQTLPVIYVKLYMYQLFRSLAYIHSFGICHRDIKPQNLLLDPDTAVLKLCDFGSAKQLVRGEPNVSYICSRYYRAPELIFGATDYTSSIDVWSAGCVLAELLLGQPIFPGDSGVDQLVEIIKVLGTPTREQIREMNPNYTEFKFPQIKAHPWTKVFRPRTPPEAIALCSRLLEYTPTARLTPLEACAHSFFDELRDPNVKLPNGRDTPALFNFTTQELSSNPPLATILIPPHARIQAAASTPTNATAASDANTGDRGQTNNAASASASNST

Sequence of GSK3alpha (P49840 whole entry, species assumed): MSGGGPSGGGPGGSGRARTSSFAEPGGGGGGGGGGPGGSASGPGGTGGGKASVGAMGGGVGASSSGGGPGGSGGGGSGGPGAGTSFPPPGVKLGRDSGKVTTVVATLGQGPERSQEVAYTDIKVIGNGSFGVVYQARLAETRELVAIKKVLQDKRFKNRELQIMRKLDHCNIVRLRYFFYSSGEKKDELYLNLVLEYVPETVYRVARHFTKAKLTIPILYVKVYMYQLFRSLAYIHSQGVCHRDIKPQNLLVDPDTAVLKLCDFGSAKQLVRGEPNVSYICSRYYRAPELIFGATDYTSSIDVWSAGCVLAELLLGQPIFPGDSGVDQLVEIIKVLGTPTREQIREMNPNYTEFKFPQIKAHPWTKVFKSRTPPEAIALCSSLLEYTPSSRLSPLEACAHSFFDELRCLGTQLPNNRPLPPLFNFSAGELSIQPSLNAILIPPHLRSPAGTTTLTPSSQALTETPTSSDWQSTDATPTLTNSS

Consider `Cn1ccnc1-c1cccc(-n2nnc3cnc(Nc4cccc(C#N)c4)nc32)c1` [Compound 4], for which the IC50 on GSK3alpha is 1e-08 to 1e-07 M; on GSK3β it was less than 1e-08 M.

For `CC(=O)Nc1cccc(Nc2ncc3nnn(-c4cccc(F)c4)c3n2)c1` [Compound 11], the IC50 on GSK3alpha and at GSK3β was less than 1e-08 M in each case.

Turning to `Nc1cccc(Nc2ncc3nnn(-c4cccc(F)c4)c3n2)c1` [Compound 12], the IC50 is 1e-08 to 1e-07 M at GSK3alpha and less than 1e-08 M on GSK3β.

For `COC(=O)c1cccc(Nc2ncc3nnn(-c4cccc(F)c4)c3n2)c1` [Compound 13], the IC50 at GSK3β is 1e-08 to 1e-07 M.

Turning to `Cc1cccc(Nc2ncc3nnn(-c4cccc(F)c4)c3n2)c1` [Compound 14], the IC50 at GSK3alpha is less than 1e-08 M; at GSK3β, 1e-08 to 1e-07 M.

With `Oc1cccc(Nc2ncc3nnn(-c4cccc(F)c4)c3n2)c1` [Compound 15], the values for the IC50 on GSK3alpha and at GSK3β were less than 1e-08 M and 1e-08 M, respectively.

For `Fc1cccc(Nc2ncc3nnn(-c4cccc(F)c4)c3n2)c1` [Compound 17], the IC50 is less than 1e-08 M on GSK3alpha and 1e-08 to 1e-07 M at GSK3β.

Take `N#CSc1ccc(Nc2ncc3nnn(-c4cccc(F)c4)c3n2)cc1` [Compound 18]: the IC50 on GSK3alpha and on GSK3β was 1e-08 to 1e-07 M each time.

Take `Fc1cccc(-n2nnc3cnc(Nc4ccc(OC(F)F)cc4)nc32)c1` [Compound 19]: the IC50 on GSK3alpha was less than 1e-08 M; at GSK3β, 1e-08 to 1e-07 M.

`N#CCc1ccc(Nc2ncc3nnn(-c4cccc(F)c4)c3n2)cc1` [Compound 20]: the IC50 is less than 1e-08 M on GSK3alpha and 1e-08 to 1e-07 M on GSK3β.

In the case of `Cc1ccc(Nc2ncc3nnn(-c4cccc(F)c4)c3n2)cc1O` [Compound 21], the IC50 on GSK3alpha and at GSK3β was less than 1e-08 M each time.

Regarding `Fc1cccc(-n2nnc3cnc(Nc4cccc(OC(F)(F)F)c4)nc32)c1` [Compound 22], the IC50 on GSK3alpha and at GSK3β was less than 1e-08 M throughout.

Turning to `CCOc1cccc(Nc2ncc3nnn(-c4cccc(F)c4)c3n2)c1` [Compound 23], the IC50 on GSK3alpha and at GSK3β was less than 1e-08 M each time.

With `CNC(=O)c1cccc(Nc2ncc3nnn(-c4cccc(F)c4)c3n2)c1` [Compound 24], the IC50 at GSK3alpha and on GSK3β was less than 1e-08 M in each case.

On to `O=C(O)Cc1cccc(Nc2ncc3nnn(-c4cccc(F)c4)c3n2)c1` [Compound 25], for which the IC50 is less than 1e-08 M on GSK3alpha and 1e-08 to 1e-07 M at GSK3β.

As to `O=C(O)c1cccc(Nc2ncc3nnn(-c4cccc(F)c4)c3n2)c1` [Compound 29], the results for the IC50 on GSK3alpha and on GSK3β were less than 1e-08 M and 1e-08 to 1e-07 M, respectively.

With `O=C(O)c1ccc(Nc2ncc3nnn(-c4cccc(F)c4)c3n2)cc1` [Compound 30], the IC50 on GSK3alpha and on GSK3β was less than 1e-08 M each time.

As for `OCc1cccc(Nc2ncc3nnn(-c4cccc(F)c4)c3n2)c1` [Compound 31], the IC50 at GSK3alpha and on GSK3β was less than 1e-08 M throughout.

On to `Fc1cccc(-n2nnc3cnc(Nc4ccc(Cl)nc4)nc32)c1` [Compound 32], for which the IC50 at GSK3alpha and on GSK3β was less than 1e-08 M each time.

On to `N#Cc1cccc(Nc2ncc3nnn(-c4cccc(Br)c4)c3n2)c1` [Compound 33], for which the IC50 at GSK3alpha and at GSK3β was less than 1e-08 M in each case.

As to `N#Cc1cccc(Nc2ncc3nnn(-c4ccccc4)c3n2)c1` [Compound 34], the IC50 at GSK3alpha and at GSK3β was less than 1e-08 M each time.

`COc1cccc(-n2nnc3cnc(Nc4cccc(S(N)(=O)=O)c4)nc32)c1` [Compound 35]: the IC50 on GSK3alpha and at GSK3β was less than 1e-08 M throughout.

As to `NS(=O)(=O)c1cccc(Nc2ncc3nnn(-c4cccc(CO)c4)c3n2)c1` [Compound 36], the IC50 on GSK3alpha and on GSK3β was less than 1e-08 M each time.

For `NS(=O)(=O)c1ccc(Nc2ncc3nnn(-c4ccccc4)c3n2)cc1` [Compound 37], the IC50 at GSK3alpha and at GSK3β was less than 1e-08 M in each case.

Take `NC(=O)c1cccc(Nc2ncc3nnn(-c4ccccc4)c3n2)c1` [Compound 38]: the IC50 on GSK3alpha and at GSK3β was less than 1e-08 M throughout.

Take `NC(=O)c1cccc(Nc2ncc3nnn(-c4cccc(C(N)=O)c4)c3n2)c1` [Compound 39]: the IC50 on GSK3alpha and at GSK3β was less than 1e-08 M throughout.

As for `COc1cccc(-n2nnc3cnc(Nc4cccc(NC(C)=O)c4)nc32)c1` [Compound 42], the IC50 at GSK3alpha and on GSK3β was less than 1e-08 M in each case.

In the case of `COc1cccc(-n2nnc3cnc(Nc4cccc(C(C)O)c4)nc32)c1` (stereo not shown) [Compound 43], the IC50 on GSK3alpha and on GSK3β was less than 1e-08 M throughout.

On to `CS(=O)(=O)c1cccc(Nc2ncc3nnn(-c4cccc(F)c4)c3n2)c1` [Compound 44], for which the IC50 on GSK3alpha and at GSK3β was less than 1e-08 M throughout.

Turning to `CS(=O)(=O)Nc1cccc(Nc2ncc3nnn(-c4cccc(F)c4)c3n2)c1` [Compound 45], the IC50 on GSK3alpha and on GSK3β was less than 1e-08 M throughout.

For the compound `COc1ccc(Nc2ncc3nnn(-c4ccccc4)c3n2)cn1` [Compound 47], the IC50 on GSK3alpha and at GSK3β was less than 1e-08 M in each case.

In the case of `COc1cccc(-n2nnc3cnc(Nc4cccc(C(C)=O)c4)nc32)c1` [Compound 51], the IC50 at GSK3alpha and on GSK3β was less than 1e-08 M throughout.

As to `COc1cccc(-n2nnc3cnc(Nc4cccc(NS(C)(=O)=O)c4)nc32)c1` [Compound 52], the IC50 at GSK3alpha and on GSK3β was less than 1e-08 M in each case.

Consider `COc1cccc(-n2nnc3cnc(Nc4cccc(S(C)(=O)=O)c4)nc32)c1` [Compound 53], for which the IC50 at GSK3alpha and on GSK3β was less than 1e-08 M in each case.

With `OCc1cccc(Nc2ncc3nnn(-c4cccc(CO)c4)c3n2)c1` [Compound 54], the IC50 at GSK3alpha and at GSK3β was less than 1e-08 M throughout.

`COCc1cccc(Nc2ncc3nnn(-c4cccc(F)c4)c3n2)c1` [Compound 56]: the IC50 at GSK3alpha and at GSK3β was less than 1e-08 M throughout.

Consider `CS(=O)(=O)Nc1cccc(Nc2ncc3nnn(-c4cccc(S(N)(=O)=O)c4)c3n2)c1` [Compound 58], for which the IC50 at GSK3alpha and at GSK3β was less than 1e-08 M throughout.

In the case of `CC(=O)Nc1cccc(Nc2ncc3nnn(-c4ccccc4)c3n2)c1` [Compound 59], the IC50 at GSK3alpha and at GSK3β was less than 1e-08 M each time.

Turning to `CC(=O)c1cccc(Nc2ncc3nnn(-c4ccccc4)c3n2)c1` [Compound 60], the IC50 at GSK3alpha and at GSK3β was less than 1e-08 M throughout.

For `COCc1cccc(Nc2ncc3nnn(-c4ccccc4)c3n2)c1` [Compound 61], the IC50 at GSK3alpha and at GSK3β was less than 1e-08 M in each case.

Take `CS(=O)(=O)Nc1cccc(Nc2ncc3nnn(-c4cccc(CO)c4)c3n2)c1` [Compound 62]: the IC50 at GSK3alpha and on GSK3β was less than 1e-08 M throughout.

As for `CC(=O)Nc1cccc(Nc2ncc3nnn(-c4cccc(S(N)(=O)=O)c4)c3n2)c1` [Compound 63], the IC50 at GSK3alpha and on GSK3β was less than 1e-08 M each time.

In the case of `CC(=O)c1cccc(Nc2ncc3nnn(-c4cccc(S(N)(=O)=O)c4)c3n2)c1` [Compound 64], the IC50 at GSK3alpha and on GSK3β was less than 1e-08 M in each case.

As for `COc1cccc(-n2nnc3cnc(Nc4cccc(C(=O)O)c4)nc32)c1` [Compound 66], the IC50 at GSK3alpha and on GSK3β was 1e-08 to 1e-07 M in each case.

For `O=C(O)c1cccc(Nc2ncc3nnn(-c4cccc(CO)c4)c3n2)c1` [Compound 68], the IC50 at GSK3alpha was 1e-08 to 1e-07 M.

For `O=C(O)c1cc(Nc2ncc3nnn(-c4cccc(F)c4)c3n2)ccc1Cl` [Compound 70], the IC50 at GSK3alpha was 1e-08 to 1e-07 M.

Take `O=C(O)c1cc(Nc2ncc3nnn(-c4cccc(F)c4)c3n2)ccc1O` [Compound 71]: the IC50 on GSK3alpha was less than 1e-08 M; at GSK3β, 1e-08 to 1e-07 M.

With `COc1cccc(-n2nnc3cnc(Nc4ccc(O)c(C(=O)O)c4)nc32)c1` [Compound 72], the figures for the IC50 on GSK3alpha and on GSK3β were less than 1e-08 M and 1e-08 to 1e-07 M, respectively.

Regarding `CC(=O)NCc1cccc(Nc2ncc3nnn(-c4cccc(F)c4)c3n2)c1` [Compound 73], the IC50 on GSK3alpha and at GSK3β was less than 1e-08 M throughout.

Turning to `COC(=O)c1cccc(-n2nnc3cnc(Nc4cccc(CNC(C)=O)c4)nc32)c1` [Compound 74], the IC50 at GSK3alpha was less than 1e-08 M; on GSK3β, 1e-08 M.

On to `CC(=O)NCc1cccc(Nc2ncc3nnn(-c4ccccc4)c3n2)c1` [Compound 75], for which the IC50 was less than 1e-08 M at GSK3alpha and 1e-08 to 1e-07 M at GSK3β.

For `O=S(=O)(CCO)c1cccc(Nc2ncc3nnn(-c4cccc(F)c4)c3n2)c1` [Compound 77], the IC50 at GSK3alpha and at GSK3β was less than 1e-08 M each time.

Regarding `NCc1cccc(Nc2ncc3nnn(-c4ccccc4)c3n2)c1` [Compound 78], the IC50 on GSK3alpha and on GSK3β was 1e-08 to 1e-07 M throughout.

As for `NCc1cccc(Nc2ncc3nnn(-c4cccc(F)c4)c3n2)c1` [Compound 79], the IC50 on GSK3alpha and at GSK3β was 1e-08 to 1e-07 M throughout.

On to `COCc1cccc(-n2nnc3cnc(Nc4cccc(CNC(C)=O)c4)nc32)c1` [Compound 80], for which the IC50 at GSK3alpha and at GSK3β was less than 1e-08 M throughout.

In the case of `O=C(O)Cc1cccc(-n2nnc3cnc(Nc4cccc(C(=O)NCCO)c4)nc32)c1` [Compound 177], at GSK3alpha, the IC50 was 1e-08 to 1e-07 M.

For the compound `COCCOCc1cccc(-n2nnc3cnc(Nc4cccc(C#N)c4)nc32)c1` [Compound 290], at GSK3β, the IC50 is less than 1e-08 M.
